Measured values published in patent US7759366B2 (Sanofi-Aventis, priority 2006, dated 2010).
Counter-ions that a name gives are not always drawn. Like-named read-outs stand apart in the source and are kept apart here.

Legend:
[1] = molecular target: hCB2R (Homo sapiens, UniProt P34972); assay: In vitro functional assay (FLIPR, intracellular Ca2+) with recombinant HEK293 cells, CB2;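 note: intracellular Ca2+ was tracked with the fluorescent dye Fluo-4 loaded into the cells before test substance addition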
Sequence of hCB2R (P34972 whole entry): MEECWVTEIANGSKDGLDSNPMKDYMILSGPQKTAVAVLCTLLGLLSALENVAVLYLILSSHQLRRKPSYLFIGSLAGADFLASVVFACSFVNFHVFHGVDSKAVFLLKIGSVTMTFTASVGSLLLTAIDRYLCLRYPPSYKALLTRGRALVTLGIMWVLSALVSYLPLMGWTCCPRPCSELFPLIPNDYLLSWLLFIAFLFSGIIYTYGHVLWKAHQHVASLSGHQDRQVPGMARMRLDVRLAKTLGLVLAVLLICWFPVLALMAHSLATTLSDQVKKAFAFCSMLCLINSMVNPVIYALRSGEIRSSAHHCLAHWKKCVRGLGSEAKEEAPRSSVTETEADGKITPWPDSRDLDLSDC
Description: Function-testing assays were performed by means of the FLIPR technique (“Fluorometric Imaging Plate Reader”, Molecular Devices Corp.).
To this end, ligand-induced changes in the intracellular concentration of Ca^2+ in recombinant HEK293 cells, which expressed both a cannabinoid receptor (CB1 or CB2) and G-protein Galpha16, were determined. For the studies, cells were sown into 96-well microtiter plates (60 000 cells/well) and left to grow overnight. The medium was removed and the cells were incubated in buffer which contained the fluorescent dye Fluo-4. After this loading with dye, the cells were washed, test substance was added dissolved in buffer, the mixture was incubated for 20 minutes, a known cannabinoid receptor agonist as a reference agonist was added in buffer and, finally, the changes in the intracellular Ca^2+ concentration were measured in the FLIPR unit.

[2] = molecular target: T1, hCB1R (Homo sapiens, UniProt P21554); assay: Binding to the CB1 receptor ([3H]-SR141716A displacement)
T1 sequence (P21554 whole entry): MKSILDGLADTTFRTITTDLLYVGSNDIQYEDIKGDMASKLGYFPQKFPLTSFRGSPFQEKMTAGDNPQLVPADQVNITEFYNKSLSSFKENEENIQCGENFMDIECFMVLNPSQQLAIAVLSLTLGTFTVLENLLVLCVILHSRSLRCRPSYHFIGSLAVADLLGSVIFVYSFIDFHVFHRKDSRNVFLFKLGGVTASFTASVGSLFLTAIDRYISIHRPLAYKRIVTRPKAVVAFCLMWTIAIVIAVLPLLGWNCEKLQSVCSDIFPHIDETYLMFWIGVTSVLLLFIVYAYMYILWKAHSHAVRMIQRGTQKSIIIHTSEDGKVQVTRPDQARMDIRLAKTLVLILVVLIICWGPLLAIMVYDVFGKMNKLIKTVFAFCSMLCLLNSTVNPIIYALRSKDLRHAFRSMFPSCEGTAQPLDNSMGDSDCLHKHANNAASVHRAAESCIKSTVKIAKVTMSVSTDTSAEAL
Summary of the method: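 [3H]-SR141716A displacement at hCB1R; test compounds at final 10 μM to 0.005 μM in assay buffer with 1% DMSO, duplicate determinations. Low control 1 μM AM 251, high control binding without compound; IC50 from curve fit, converted to Ki via Cheng-Prusoff using Kd.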

[3] = molecular target: T1, hCB1R; assay: In vitro functional assay (FLIPR, intracellular Ca2+) with recombinant HEK293 cells, CB1; assay type: cell-based; design: expressed in transfected cells; host or cells: HEK293
Description: In Vitro Functional Assays with Recombinant Cells:

[4] = read-out: hCB2R: FLIPR, IC50, recombinant HEK293 cells expressing CB2 and Galpha16, 20 min preincubation, then reference agonist, Ca2+ change
[5] = CHO-K1/cannabinoid CB1 protein 2 μg/well, [3H]-SR141716A 0.5 nM, Ki from IC50 by Cheng-Prusoff, average of double determination, read-out: hCB1R, binding Ki

Which results are given for `CC1OC(=O)c2cc(Nc3ccccc3CN3C(=O)N(c4ccc(C#N)c(C(F)(F)F)c4)C(=O)C3(C)C)ccc2O1` (centres unmarked) [Example 142, 4-{4,4-dimethyl-3-[2-(2-methyl-4-oxo-4H-1,3-benzodioxin-6-ylamino)benzyl]-2,5-dioxoimidazolidin-1-yl}-2-trifluoromethylbenzonitrile]?
IC50 [1, 4]: > 10000 nM; Ki [2]: 3 nM

Which results are given for `CC1(C)C(=O)N(c2ccc(C#N)c(C(F)(F)F)c2)C(=O)N1Cc1ccc(C(F)(F)F)cc1Nc1ccc(F)cc1F` [Example 56, 4-{3-[2-(2,4-difluorophenylamino)-4-trifluoromethylbenzyl]-4,4-dimethyl-2,5-dioxoimidazolidin-1-yl}-2-trifluoromethylbenzonitrile]?
IC50 [3]: 8 nM; IC50 [1, 4]: > 10000 nM; Ki [2]: 3 nM

`CC1(C)C(=O)N(c2ccnc(C(F)(F)F)c2)C(=O)N1Cc1ccccc1Nc1ccc(F)cc1F` [Example 66, 1-[2-(2,4-difluorophenylamino)benzyl]-5,5-dimethyl-3-(2-trifluoromethylpyridin-4-yl)imidazolidine-2,4-dione] was tested. Which IC50 ([3]; recombinant HEK293 cells expressing CB1 and Galpha16, 20 min preincubation, then reference agonist, Ca2+ change, read-out: hCB1R: FLIPR, IC50) did it give?
The IC50 was 25 nM.

What about the IC50 [1] of the same molecule?
Its IC50 is over 10000 nM.

And the Ki [2, 5]?
Its Ki is 7 nM.

With `CC1(C)C(=O)N(c2ccc(C#N)c(C(F)(F)F)c2)C(=O)N1Cc1ccccc1Nc1ccc(C(F)(F)F)cc1` [Example 5, 4-{3-[2-(4-trifluoromethylphenylamino)benzyl]-4,4-dimethyl-2,5-dioxoimidazolidin-1-yl}-2-trifluoromethylbenzonitrile] as the molecule, how does the IC50 [3] read?
Its IC50 is 44 nM.

And the IC50 [1, 4]?
The IC50 was over 10000 nM.

And the Ki [2]?
The Ki was 7 nM.

For `COC(=O)c1ccc(Nc2ccccc2CN2C(=O)N(c3ccc(C#N)c(C(F)(F)F)c3)C(=O)C2(C)C)cc1OC` [Example 140, methyl 4-{2-[3-(4-cyano-3-trifluoromethylphenyl)-5,5-dimethyl-2,4-dioxoimidazolidin-1-ylmethyl]phenylamino}-2-methoxybenzoate], which IC50 [1, 4] is on record?
The IC50 was over 10000 nM.

What about the Ki [2] of the same molecule?
Its Ki is 26 nM.

Which results are given for `COc1ccc(Nc2ccccc2CN2C(=O)N(c3ccc(C#N)c(C(F)(F)F)c3)C(=O)C2(C)C)cc1` [Example 67, 4-{3-[2-(4-methoxyphenylamino)benzyl]-4,4-dimethyl-2,5-dioxoimidazolidin-1-yl}-2-trifluoromethylbenzonitrile]?
IC50 [3]: 1 nM; IC50 [1, 4]: > 10000 nM; Ki [2]: 1 nM

`CC1(C)C(=O)N(c2ccc(C#N)c(C(F)(F)F)c2)C(=O)N1Cc1ccccc1Nc1ccc(C(=O)NC(CO)CO)cc1` [Example 137, 4-{2-[3-(4-cyano-3-trifluoromethylphenyl)-5,5-dimethyl-2,4-dioxoimidazolidin-1-ylmethyl]phenylamino}-N-(2-hydroxy-1-hydroxymethylethyl)benzamide] was tested. Which IC50 [1, 4] did it give?
Its IC50 is over 10000 nM.

What about the Ki [2] of the same molecule?
Its Ki is 51 nM.

How did the IC50 [3] turn out when `COC(=O)c1ccc(Nc2ccccc2CN2C(=O)N(c3ccc(C#N)c(C(F)(F)F)c3)C(=O)C2(C)C)cc1` [Example 60, methyl 4-{2-[3-(4-cyano-3-trifluoromethylphenyl)-5,5-dimethyl-2,4-dioxoimidazolidin-1-ylmethyl]phenylamino}benzoate] was run?
The IC50 was 2 nM.

And the IC50 [1, 4]?
The IC50 was over 10000 nM.

What about the Ki [2] of the same molecule?
Its Ki is 1 nM.

Which results are given for `CC1(C)C(=O)N(c2ccc(C#N)c(C(F)(F)F)c2)C(=O)N1Cc1cccc(Cl)c1Nc1ccc(F)cc1F` [Example 42, 4-{3-[5-chloro-6-(2,4-difluorophenylamino)benzyl]-4,4-dimethyl-2,5-dioxoimidazolidin-1-yl}-2-trifluoromethylbenzonitrile]?
IC50 [3]: 12 nM; IC50 [1, 4]: > 10000 nM; Ki [2]: 1 nM

What does the source list for `CC1(C)C(=O)N(c2ccc(C#N)c(C(F)(F)F)c2)C(=O)N1Cc1ccccc1Nc1ccccc1` [Example 1, 4-[4,4-Dimethyl-2,5-dioxo-3-(2-phenylaminobenzyl)imidazolidin-1-yl]-2-trifluoromethylbenzonitrile]?
IC50 [3]: 10 nM; IC50 [1, 4]: > 10000 nM; Ki [2]: 13 nM

With `CC1(C)C(=O)N(c2ccc(F)c(C(F)(F)F)c2)C(=O)N1Cc1ccccc1Nc1ccc(C(=N)N)cc1` [Example 144, 4-{2-[3-(4-Fluoro-3-trifluoromethylphenyl)-5,5-dimethyl-2,4-dioxoimidazolidin-1-ylmethyl]phenylamino}benzamidine hydrochloride] as the molecule, how does the IC50 [1] read?
Its IC50 is over 10000 nM.

And the Ki [2, 5]?
Its Ki is 19 nM.

With `CC(C)(C)c1cc(N2C(=O)N(Cc3ccccc3Nc3ccc(F)cc3F)C(C)(C)C2=O)ccc1C#N` [Example 64, 2-tert-butyl-4-{3-[2-(2,4-difluorophenylamino)benzyl]-4,4-dimethyl-2,5-dioxoimidazolidin-1-yl}benzonitrile] as the molecule, how does the IC50 [3] read?
The IC50 was 16 nM.

And the IC50 [1, 4]?
Its IC50 is over 10000 nM.

And the Ki [2]?
Its Ki is 5 nM.

For `CC1(C)C(=O)N(c2ccc(C#N)c(C(F)(F)F)c2)C(=O)N1Cc1ccccc1Nc1ccc(F)cc1F` [Example 11, 4-{3-[2-(2,4-difluorophenylamino)benzyl]-4,4-dimethyl-2,5-dioxoimidazolidin-1-yl}-2-trifluoromethylbenzonitrile], which IC50 [3] is on record?
The IC50 was 0.7 nM.

And the IC50 [1, 4]?
Its IC50 is over 10000 nM.

And the Ki [2]?
Its Ki is 1 nM.
